In ChEMBL document CHEMBL1201862, “PubChem BioAssay data set” (2004):
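Test compounds were applied to cells in 96-well plates for 48 hours at 5 doses. GI50 is the concentration that inhibits growth by half.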 The source made the active and inactive calls. No stated cut-off is given here; in the data, active = GI50 up to about 1.1 µM and inactive = higher.

What was measured:
Assay in all cases: NCI-60 cell line screen, 48 h
COLO 205 = system: COLO 205
KM12 = system: KM12
SF-295 = system: SF-295
PC-3 = system: PC-3
SN12C = system: SN12C
SK-MEL-28 = system: SK-MEL-28
UO-31 = system: UO-31
786-0 = system: 786-0
TK-10 = system: TK-10
A549 = system: A549
SK-MEL-5 = system: SK-MEL-5
UACC-62 = system: UACC-62
NCI/ADR-RES = system: NCI/ADR-RES
SW-620 = system: SW-620
RPMI-8226 = system: RPMI-8226
MDA-N = system: MDA-N
MCF7 = system: MCF7
CCRF-CEM = system: CCRF-CEM
EKVX = system: EKVX
OVCAR-4 = system: OVCAR-4
HOP-92 = system: HOP-92
SK-MEL-2 = system: SK-MEL-2
MDA-MB-231 = system: MDA-MB-231
OVCAR-8 = system: OVCAR-8
T47D = system: T47D
HOP-62 = system: HOP-62
SF-539 = system: SF-539
SK-OV-3 = system: SK-OV-3
Hs-578T = system: Hs-578T
K562 = system: K562
HCT-116 = system: HCT-116
A498 = system: A498
MDA-MB-435 = system: MDA-MB-435
U-251 = system: U-251
M14 = system: M14
HCC 2998 = system: HCC 2998
NCI-H460 = system: NCI-H460
HT-29 = system: HT-29
NCI-H23 = system: NCI-H23
MOLT-4 = system: MOLT-4
RXF 393 = system: RXF 393
CAKI-1 = system: CAKI-1
UACC-257 = system: UACC-257
DU-145 = system: DU-145
OVCAR-3 = system: OVCAR-3
SNB-75 = system: SNB-75
OVCAR-5 = system: OVCAR-5
LOX IMVI = system: LOX IMVI
IGROV-1 = system: IGROV-1
HL-60 = system: HL-60
SF-268 = system: SF-268
Malme-3M = system: Malme-3M
NCI-H522 = system: NCI-H522
ACHN = system: ACHN
SNB-19 = system: SNB-19
BT-549 = system: BT-549
HCT-15 = system: HCT-15
NCI-H226 = system: NCI-H226

## O=C(O)C/C(=C\c1ccccc1)C(=O)O
COLO 205
  GI50: > 100 µM (inactive)
KM12
  GI50: > 100 µM (inactive)
SF-295
  GI50: > 100 µM (inactive)
PC-3
  GI50: > 100 µM (inactive)
SN12C
  GI50: > 100 µM (inactive)
SK-MEL-28
  GI50: > 100 µM (inactive)
UO-31
  GI50: > 100 µM (inactive)
786-0
  GI50: > 100 µM (inactive)
TK-10
  GI50: > 100 µM (inactive)
A549
  GI50: > 100 µM (inactive)
SK-MEL-5
  GI50: > 100 µM (inactive)
UACC-62
  GI50: > 100 µM (inactive)
NCI/ADR-RES
  GI50: > 100 µM (inactive)
SW-620
  GI50: > 100 µM (inactive)
RPMI-8226
  GI50: > 100 µM (inactive)
MDA-N
  GI50: > 100 µM (inactive)
MCF7
  GI50: > 100 µM (inactive)
CCRF-CEM
  GI50: > 100 µM (inactive)
EKVX
  GI50: > 100 µM (inactive)
OVCAR-4
  GI50: > 100 µM (inactive)
HOP-92
  GI50: > 100 µM (inactive)
SK-MEL-2
  GI50: > 100 µM (inactive)
MDA-MB-231
  GI50: > 100 µM (inactive)
OVCAR-8
  GI50: > 100 µM (inactive)
T47D
  GI50: > 100 µM (inactive)
HOP-62
  GI50: > 100 µM (inactive)
SF-539
  GI50: > 100 µM (inactive)
SK-OV-3
  GI50: > 100 µM (inactive)
Hs-578T
  GI50: > 100 µM (inactive)
K562
  GI50: 31.7 µM (inactive)
HCT-116
  GI50: > 100 µM (inactive)
A498
  GI50: > 100 µM (inactive)
MDA-MB-435
  GI50: > 100 µM (inactive)
U-251
  GI50: > 100 µM (inactive)
M14
  GI50: > 100 µM (inactive)
HCC 2998
  GI50: > 100 µM (inactive)
NCI-H460
  GI50: > 100 µM (inactive)
HT-29
  GI50: > 100 µM (inactive)
NCI-H23
  GI50: > 100 µM (inactive)
MOLT-4
  GI50: > 100 µM (inactive)
RXF 393
  GI50: > 100 µM (inactive)
CAKI-1
  GI50: > 100 µM (inactive)
UACC-257
  GI50: > 100 µM (inactive)
DU-145
  GI50: > 100 µM (inactive)
OVCAR-3
  GI50: > 100 µM (inactive)
SNB-75
  GI50: > 100 µM (inactive)
OVCAR-5
  GI50: > 100 µM (inactive)
LOX IMVI
  GI50: > 100 µM (inactive)
IGROV-1
  GI50: > 100 µM (inactive)
HL-60
  GI50: > 100 µM (inactive)
SF-268
  GI50: > 100 µM (inactive)
Malme-3M
  GI50: > 100 µM (inactive)
NCI-H522
  GI50: > 100 µM (inactive)
ACHN
  GI50: > 100 µM (inactive)
SNB-19
  GI50: > 100 µM (inactive)
BT-549
  GI50: > 100 µM (inactive)
HCT-15
  GI50: > 100 µM
NCI-H226
  GI50: > 100 µM (inactive)
